Test results published in publication PMC2774495 (Cancer chemotherapy and pharmacology, 2009).
Where two headings read alike, the source gives them in different places. Blank lines part the entries; values can stand above or below the compound they belong to.

Key:
[1] = tested on: CYP1A2; conditions: read-out: Ki for inhibition of CYP1A2; in vitro; cited from earlier work
[2] = tested on: 2C9; conditions: read-out: Ki for inhibition of CYP2C9; in vitro; cited from earlier work
[3] = biological target: T1, expressed CYP2B6 (Homo sapiens, UniProt P20813); assay: Inhibition of expressed CYP2B6; assay type: biochemical; conditions: read-out: Ki values, expressed CYP2B6; expressed CYP2B6 52 pmol/ml, efavirenz 10–75 μM, mean ± SE, competitive model
T1 sequence (P20813 1-491): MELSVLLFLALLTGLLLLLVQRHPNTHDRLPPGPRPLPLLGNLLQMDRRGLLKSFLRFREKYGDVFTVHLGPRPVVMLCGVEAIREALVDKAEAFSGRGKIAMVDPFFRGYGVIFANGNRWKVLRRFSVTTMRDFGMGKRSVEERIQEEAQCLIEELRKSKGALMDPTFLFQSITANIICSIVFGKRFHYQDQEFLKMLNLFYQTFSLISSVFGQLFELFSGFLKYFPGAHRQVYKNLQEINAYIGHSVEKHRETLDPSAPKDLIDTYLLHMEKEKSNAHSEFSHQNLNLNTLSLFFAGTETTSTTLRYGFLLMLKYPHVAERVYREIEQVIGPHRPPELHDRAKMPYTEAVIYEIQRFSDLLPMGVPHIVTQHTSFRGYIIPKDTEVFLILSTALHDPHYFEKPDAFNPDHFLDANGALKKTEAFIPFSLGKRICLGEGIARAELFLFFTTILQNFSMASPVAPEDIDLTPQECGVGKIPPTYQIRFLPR

[4] = biological target: T2, CYP2C19 (Homo sapiens, UniProt P33261)
[5] = biological target: T3, expressed CYP2C19 (Homo sapiens, UniProt P33261); conditions: read-out: Ki values, expressed CYP2C19; expressed 2C19 52 pmol/ml, S-mephenytoin 10–75 μM, mean ± SE, competitive model
[6] = cited from earlier work
[7] = biological target: T4, CYP2A6 (Homo sapiens, UniProt P11509); assay: Inhibition of CYP2A6
T4 sequence (P11509 1-494): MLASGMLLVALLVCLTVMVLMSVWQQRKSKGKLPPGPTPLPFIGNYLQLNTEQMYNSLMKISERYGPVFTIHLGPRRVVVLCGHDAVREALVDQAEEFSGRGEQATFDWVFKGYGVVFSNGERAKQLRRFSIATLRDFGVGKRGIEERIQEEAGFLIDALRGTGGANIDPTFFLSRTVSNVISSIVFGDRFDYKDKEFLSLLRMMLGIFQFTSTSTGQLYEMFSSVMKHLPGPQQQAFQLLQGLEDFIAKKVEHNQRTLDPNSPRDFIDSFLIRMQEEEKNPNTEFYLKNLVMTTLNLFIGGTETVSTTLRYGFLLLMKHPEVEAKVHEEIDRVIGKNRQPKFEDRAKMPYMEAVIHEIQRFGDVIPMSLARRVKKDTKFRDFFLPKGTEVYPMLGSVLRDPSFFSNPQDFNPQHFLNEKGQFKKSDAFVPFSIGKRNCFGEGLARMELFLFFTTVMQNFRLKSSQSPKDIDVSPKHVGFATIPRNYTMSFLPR

[8] = biological target: T5, CYP2B6 (Homo sapiens, UniProt P20813); assay: Inhibition of CYP2B6
T5 sequence (P20813 1-491): T1 sequence (P20813 1-491)

[9] = biological target: T6, expressed CYP2A6 (Homo sapiens, UniProt P11509); assay: Inhibition of expressed CYP2A6; assay type: biochemical
T6 sequence (P11509 1-494): T4 sequence (P11509 1-494)

[10] = tested on: CYP2C8; assay: Inhibition of CYP2C8; assay type: biochemical; conditions: human, human liver microsomes, pH 7.4, probe amodiaquine 5 μM (desethylation)
[11] = tested on: CYP3A; assay: Inhibition of CYP3A; assay type: biochemical; conditions: human, human liver microsomes, pH 7.4, probe midazolam 10 μM (1′-hydroxylation)
[12] = tested on: CYP isoforms; assay: Assessment of time-dependent inactivation; assay type: biochemical, human; conditions: preincubation 0 and 15 min with HLM and cofactors, data not shown
[13] = biological target: T4, CYP2A6; assay: Prediction of in vivo AUC change of CYP2A6 substrates from in vitro Ki; conditions: for AUCI/AUCUI ratio expected in vivo, CYP2A6, free letrozole: unbound letrozole (fu 0.2–0.4)
[14] = cited from earlier work; remark: listed apart in the source
[15] = rat liver tissues; cited from earlier work
[16] = cited from earlier work; remark: listed apart in the source
[17] = biological target: T4, CYP2A6; assay: in vitro; conditions: microsomes, pH 7.4
[18] = biological target: T5, CYP2B6; assay: in vitro; conditions: microsomes, pH 7.4
[19] = biological target: CYP2C9 (Homo sapiens, UniProt P11712); assay: in vitro; conditions: microsomes, pH 7.4
[20] = biological target: CYP2D6 (Homo sapiens, UniProt P10635); assay: in vitro; conditions: microsomes, pH 7.4
[21] = biological target: T2, CYP2C19; assay: biochemical
[22] = biological target: T3, expressed CYP2C19; assay: biochemical

T2 sequence (P33261 whole entry): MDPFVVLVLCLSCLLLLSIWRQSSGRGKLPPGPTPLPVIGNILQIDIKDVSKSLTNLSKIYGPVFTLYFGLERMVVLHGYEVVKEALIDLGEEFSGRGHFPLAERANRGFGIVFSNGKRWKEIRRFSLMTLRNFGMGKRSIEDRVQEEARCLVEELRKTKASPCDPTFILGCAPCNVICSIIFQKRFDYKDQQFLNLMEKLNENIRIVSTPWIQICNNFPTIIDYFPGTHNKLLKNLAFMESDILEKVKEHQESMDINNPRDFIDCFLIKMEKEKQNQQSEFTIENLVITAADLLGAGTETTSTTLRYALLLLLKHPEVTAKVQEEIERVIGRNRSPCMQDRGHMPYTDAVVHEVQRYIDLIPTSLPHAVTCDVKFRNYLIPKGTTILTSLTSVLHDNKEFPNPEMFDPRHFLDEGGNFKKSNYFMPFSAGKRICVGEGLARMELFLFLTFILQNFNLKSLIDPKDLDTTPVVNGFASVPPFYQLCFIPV
T3 sequence (P33261 whole entry): as above
Chain of CYP2C9 (P11712 whole entry): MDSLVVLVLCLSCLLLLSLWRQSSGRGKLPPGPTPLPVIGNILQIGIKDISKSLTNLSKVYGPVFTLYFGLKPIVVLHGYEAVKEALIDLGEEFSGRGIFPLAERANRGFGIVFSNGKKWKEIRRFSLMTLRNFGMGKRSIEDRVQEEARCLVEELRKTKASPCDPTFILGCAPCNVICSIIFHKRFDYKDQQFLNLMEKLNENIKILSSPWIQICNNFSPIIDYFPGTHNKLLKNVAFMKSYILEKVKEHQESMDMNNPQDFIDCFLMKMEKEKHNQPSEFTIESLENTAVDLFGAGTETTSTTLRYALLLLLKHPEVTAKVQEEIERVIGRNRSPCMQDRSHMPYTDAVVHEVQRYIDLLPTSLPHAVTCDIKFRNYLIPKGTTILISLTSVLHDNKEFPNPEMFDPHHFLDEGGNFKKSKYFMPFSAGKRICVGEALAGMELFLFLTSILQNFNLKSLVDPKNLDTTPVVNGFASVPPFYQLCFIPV
Chain of CYP2D6 (P10635 whole entry): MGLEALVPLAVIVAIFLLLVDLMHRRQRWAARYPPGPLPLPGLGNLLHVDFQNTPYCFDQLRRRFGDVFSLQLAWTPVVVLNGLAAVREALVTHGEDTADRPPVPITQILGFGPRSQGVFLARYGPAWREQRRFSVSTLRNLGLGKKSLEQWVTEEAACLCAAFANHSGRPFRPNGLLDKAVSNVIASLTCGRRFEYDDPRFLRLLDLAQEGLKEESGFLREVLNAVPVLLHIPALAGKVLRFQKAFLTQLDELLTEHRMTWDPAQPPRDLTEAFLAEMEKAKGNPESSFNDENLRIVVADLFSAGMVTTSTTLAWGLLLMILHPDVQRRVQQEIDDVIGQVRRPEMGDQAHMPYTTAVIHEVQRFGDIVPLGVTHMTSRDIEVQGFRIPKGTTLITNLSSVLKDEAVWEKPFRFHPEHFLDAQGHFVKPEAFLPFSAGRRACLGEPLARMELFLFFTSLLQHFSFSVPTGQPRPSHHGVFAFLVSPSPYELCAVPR

Compound: CC(C)(C#N)c1cc(Cn2cncn2)cc(C(C)(C)C#N)c1 [anastrozole]
Ki [1]: 8 to 10 µM | Ki [2]: 8 to 10 µM

Compound: N#Cc1ccc(C(O)c2ccc(C#N)cc2)cc1 [letrozole metabolite, 4,4′-methanol-bisbenzonitrile]
Ki [3]: 40.4 ± 14.6 µM | Mode of inhibition of CYP2C19 ([4]; Dixon plots and enzyme inhibition models, HLMs and expressed CYP2C19): competitive | Ki ([4]; read-out: Ki values, CYP2C19, HLMs, HLMs (SD-101) 0.5 mg/ml, S-mephenytoin 10–75 μM, mean ± SE, competitive model): 19.5 ± 0.5 µM | Ki [5]: 4.5 ± 0.7 µM | Fraction of letrozole dose accounted for by the metabolite ([6]; human): over 60% | Effect on CYP2A6 activity ([7]; HLMs, 0–100 μM): lack of any effect | Mode of inhibition of CYP2B6 ([8]; Dixon plots and enzyme inhibition models, HLMs and expressed CYP2B6): competitive | Ki ([8]; read-out: Ki values, CYP2B6, HLMs, HLMs (HL-091499) 0.5 mg/ml, efavirenz 10–75 μM, mean ± SE, competitive model): 12.9 ± 3.8 µM

IC50 [9]: 12.5 µM | Ki [9]: 5 ± 2.4 µM | inhibition at 15 min, 100 μM [10]: < 20% | inhibition at 5 min, 100 μM [11]: < 20% | AUCI/AUCUI ratio expected in vivo, CYP2A6, total letrozole ([13]; letrozole plasma concentration 0.5–1 μM (bound + unbound), Ki from HLMs): 1.11–1.22 | Predicted increase in exposure of CYP2A6 substrates (maximum) ([13]; predicted from in vitro Ki): 11–22% | AUCI/AUCUI ratio expected in vivo, CYP2A6, free letrozole ([13]; Ki from HLMs): close to unity | AUCI/AUCUI ratio expected in vivo, CYP2A6, free letrozole ([13]; Ki from HLMs, listed as Letrozole): 1.04–1.09 | Fold Ki for CYP2C19 above therapeutic plasma concentrations of letrozole ([4]; human): over 40 fold | Mode of inhibition of CYP2C19 ([4]; microsomes): competitive | Ki at 15 min [17]: 4.6 ± 0.1 µM | inhibition at 10 min, 100 μM [18]: < 20% | inhibition at 60 min, 100 μM [19]: < 20% | inhibition at 30 min, 100 μM [20]: < 20% | IC50 [21]: 24.8 µM | Ki [21]: 42.2 ± 3.8 µM | IC50 [22]: 62.9 µM | Ki ([22]; Ki values, expressed CYP2C19, expressed 2C19 52 pmol/ml, S-mephenytoin 10–75 μM, mean ± SE, competitive model): 33.3 µM | IC50 [7]: 5.9 µM | Mode of inhibition of CYP2A6 ([7]; Dixon plots and enzyme inhibition models, HLMs and expressed CYP2A6): competitive
Compound: N#Cc1ccc(C(c2ccc(C#N)cc2)n2cncn2)cc1 [letrozole, 4,4′-[(1H-1,2,4-triazol-1-yl)methylene] bis-benzonitrile]
Time dependence of inhibition of CYPs [12]: not time dependent | Absolute bioavailability [6]: 99.9% | Exposure at steady state higher than at a single dose [6]: 28% | Radioactivity in plasma accounted by unchanged drug ([6]; following 14C-labeled letrozole (2.5 mg)): Approximately 82% | Cmax ([6]; read-out: Average maximum plasma concentration (Cmax) at steady state, women with breast cancer, 2.5 mg/day): ~500 nM | Plasma protein binding [14]: 60% | Liver tissue concentration relative to plasma [15]: > sevenfold | Effect on the pharmacokinetics of known CYP substrates including warfarin, diazepam, and tamoxifen [16]: lack of letrozole's effect
